Measured values reported in patent US20260053760A1, “Compositions Suitable for Use on Skin Afflicted with Eczema” (Kenvue Brands LLC, priority 2022, published 2026).

Test system: Staphylococcus epidermidis (ATCC 12228)
Test: In vitro bacteria competition assay (co-culture)
Assay type: cell-based
Conditions: 1:1 co-culture with S. aureus in Nutrient Broth, 24 hours aerobic, colony counts; percentages w/v %
Protocol: In vitro bacteria competition assay evaluated Staphylococcus epidermidis (ATCC 12228, skin health associated strain) and Staphylococcus aureus (ATCC 6538, human lesion isolate) co-culture in the presence of test materials. Percentages are w/v % in liquid medium (Nutrient Broth, Culture Media and Supplies Inc.) To mimic the microenvironment of the skin surface, an aerobic, co-culture system of S. epidermidis and S. aureus was established. 50 μL S. epidermidis and 50 μL S. aureus (a 1:1 ratio) were inoculated (50 μL at approximately 5.0×10^6 CFU/mL each) in Nutrient Broth and in the presence of the test materials as specified in Table 14 below. [table] Test groups were incubated aerobically for 24 hours (n=3 per test group) After 24 hours, each test group was plated onto agar and incubated aerobically for 24 hours […]. After incubation, colonies were counted, and CFU/mL calculated. S. epidermidis and S. aureus colonies were differentiated on agar (Tryptic Soy Agar+5% sheep's blood, BD Diagnostics) based on representative morphology.

For CC(O)C(=O)O (stereo not shown) [Lactic Acid (1.1%), Lactic acid], the “Bacteria Competition Assay: S. epidermidis growth versus untreated” value was “inhibited”.
